One data set relates to Polθ nuclear bodies. Description: Polθ nuclear bodies in G1 after siRNA. It is filed as cell-based, human. The following applies: siRNA knockdown, G1 cells. The protocol: Transfection of siRNA oligonucleotides (Eurofins) was performed using Lipofectamine RNAiMax (ThermoFisher Scientific) following the manufacturer’s instructions.
Cells grown on coverslips were fixed for 15 min in 2% paraformaldehyde, permeabilized for 10 min in 0.5% Triton X-100, blocked for 30 min in BSA 5%, 0.1% Triton X-100, immunostained for 1 h with primary antibodies, 45 min with secondary antibodies (Highly Cross-Adsorbed Secondary Antibodies Alexa Fluor, ThermoFisher Scientific) and mounted Vectashield mounting medium containing DAPI (Vector Laboratories). The same protocol was applied to mitotic cells, which were collected by shake off and centrifuged onto glass slides using a cytospin centrifuge (400g, 5 min) before fixation. […] Biotin azide-EdU click-it reaction was performed after fixation and permeabilization by incubating cells with a mix of Picolyl biotin, CuSO4, THPTA (Jena Bioscience) and sodium ascorbate in PBS for 30 min in the dark followed by an incubation with streptavidin conjugated Alex fluor 647 antibody (ThermoFisher Scientific) during 1 h at room temperature. Images were taken at 60× or 100× magnification using Upright Spinning disk Confocal Microscope (Roper/Zeiss) or at 40× magnification using DeltaVision (Deconvolution) Image Restoration Microscope. […] Images were analysed using the Fiji software. […]

In another data set the test system is wild-type cells. Put plainly: Clonogenic survival, wild-type. The following applies: Rucaparib 1 μM, 1 h in mitosis. Format: cell-based, human. The protocol: (§1) For mitotic cells: cells were blocked in G2 using RO3306 (5 μM), released, then blocked in mitosis by nocodazole and subsequently seeded for clonogenic survival. Polθ-mAID cells were blocked 4 h in RO3306 (5 μM) with or without IAA (500 μM) and released in nocodazole with or without IAA for 1 h. In the case of PARPi treatment, cells were blocked 16 h in RO3306 (5 μM) and released in nocodazole with or without Rucaparib (1 μM) for 1 h. After shake off, mitotic cells were washed twice with warm media, counted and seeded for clonogenic survival. For interphase cells: growing cells were treated with IAA (500 μM), or Rucaparib (1 μM) for indicated time, washed twice with warm media and counted. For clonogenic assay upon siRNA transfection, 150,000 cells were plated per well of a 6-well plate and transfected the same day with indicated siRNA. The day after, cells were washed twice, counted and seeded for clonogenic survival. For each condition, two concentrations of cells (BRCA2^−/− cells: 500 and 2000 cells; wild-type cells: 50 and 150 cells) were seeded per well of a 6-well plate. Finally, 10 to 14 days after seeding, colonies were stained with blue methylene (Sigma, 1808) for 2 h at room temperature, washed in water, air-dried overnight and scored manually.

In data set [1] the test system is mitotic BRCA2^−/− cells. Put plainly: γH2AX / DSB formation in mitotic cells. It is filed as cell-based, human. The following applies: Rucaparib 1 μM, 1 h in mitosis. As for the experimental part: (§2) Cells grown on coverslips were fixed for 15 min in 2% paraformaldehyde, permeabilized for 10 min in 0.5% Triton X-100, blocked for 30 min in BSA 5%, 0.1% Triton X-100, immunostained for 1 h with primary antibodies, 45 min with secondary antibodies (Highly Cross-Adsorbed Secondary Antibodies Alexa Fluor, ThermoFisher Scientific) and mounted Vectashield mounting medium containing DAPI (Vector Laboratories). The same protocol was applied to mitotic cells, which were collected by shake off and centrifuged onto glass slides using a cytospin centrifuge (400g, 5 min) before fixation. […] Biotin azide-EdU click-it reaction was performed after fixation and permeabilization by incubating cells with a mix of Picolyl biotin, CuSO4, THPTA (Jena Bioscience) and sodium ascorbate in PBS for 30 min in the dark followed by an incubation with streptavidin conjugated Alex fluor 647 antibody (ThermoFisher Scientific) during 1 h at room temperature. Images were taken at 60× or 100× magnification using Upright Spinning disk Confocal Microscope (Roper/Zeiss) or at 40× magnification using DeltaVision (Deconvolution) Image Restoration Microscope. All images were taken with a Z-stack of 0.4 μM on 8 μM range around focus and projected using maximum intensity projection. Images were analysed using the Fiji software. All scale bars represent 5 μm unless stated otherwise.

Another data set has as its system BRCA2^−/− cells. Put plainly: Clonogenic survival, BRCA2^−/−. Format: cell-based, human. Particulars: Rucaparib 1 μM, 1 h in mitosis. The protocol:
as §1

Data set [2] relates to mitotic BRCA2^−/− cells. Put plainly: Metaphase spreads, chromosomal abnormalities. Format: cell-based, human. The following applies: Rucaparib, 1 h in mitosis. As for the experimental part:
Cells were blocked in G2 with RO3306 (5 μM) for 16 h, released, then blocked in mitosis by nocodazole and subsequently treated with Rucaparib for 1 h. After shake off, mitotic cells were centrifuged and subsequently resuspended in a pre-warmed hypotonic solution (0.075 M KCl) and maintained at 37 °C for 15 min. Cells were then centrifuged, and pellets were fixed in fresh methanol and stored at −20 °C. After metaphase spreading, air-dried slides were stained with a Gurr/Giemsa/Acetone solution (Gibco, 10582013; Giemsa (KaryoMAX Giemsa stain solution, Gibco, 10092013)) for 5 min and then rinsed twice with Gurr buffer. Slides were air-dried and neo-mounted with anhydrous mounting medium (Merck, 109016). Images were acquired at 100× magnification using DeltaVision (Deconvolution) Image Restoration Microscope.

In data set [3] the test system is Polθ recruitment to mitotic DSBs. Description: Polθ recruitment to laser microirradiated stripes in mitosis. The following applies: PARPi (Rucaparib), laser microirradiation. Format: cell-based, human. The protocol: Laser micro-irradiation was performed with a two-photon Ti:Saphire laser (Mai Tai DeepSee, Spectra Physics) at 800 nm with 20% power (from 2.1 W) on an inverted laser scanning confocal microscope equipped with spectral detection and a multi-photon laser (LSM880NLO/Mai Tai Laser, Zeiss, Spectra Physics), using a 40× objective NA1.3 oil DICII PL APO (420852-9870). Images were analysed using the ‘plot Z-axis profile’ function of Fiji (version 2.1.0/1.53c). X-ray irradiations were performed using the CIXD Dual Irradiator (RadeXp platform, Institut Curie).

Another data set relates to Polθ phosphorylation. Put plainly: Label-free MS quantification of Polθ phospho-sites in mitotic HeLa GFP-Polθ cells. Format: cell-based, Homo sapiens. Particulars: nocodazole 16 h, volasertib during last hour, IP 500 mM NaCl, five experiments. The protocol: For the identification of Polθ binding partners by mass spectrometry, Polθ immunoprecipitation was performed as described above in 5 mg of nuclear extract of HEK-293T NeonGreen-POLQ knock-in cells. Lysates were incubated with mNeonGreen-Trap Magnetic Agarose beads (Chromotek) for 2 h at 4 °C and beads were washed twice with 150 mM NaCl buffer, once with 300 mM NaCl and three times in 25 mM ammonium bicarbonate. Finally, beads were resuspended in 100 µl 25 mM ammonium bicarbonate and digested by adding 0.2 μg of trypsin/LysC (Promega) for 1 h at 37 °C. Samples were then loaded into custom-made C18 StageTips packed by stacking one AttractSPE disk (SPE-Disks-Bio-C18-100.47.20 Affinisep) and 2 mg beads (186004521 SepPak C18 Cartridge Waters) into a 200 µl micropipette tip for desalting. Peptides were eluted using a ratio of 40:60 MeCN:H2O + 0.1% formic acid and vacuum concentrated to dryness. Peptides were reconstituted in injection buffer (0.3% TFA) before liquid chromatography–tandem mass spectrometry (LC–MS/MS) analysis by using an RSLCnano system (Ultimate 3000, Thermo Scientific) coupled to an Orbitrap Exploris 480 mass spectrometer (Thermo Scientific) as described previously. Mass spectrometry analysis was performed on three independent experiments. NeonGreen-Trap Magnetic Agarose beads incubated in HEK native cell extracts were used as control. For Polθ phosphorylated sites identification by mass spectrometry, Hela cells expressing GFP–Polθ were blocked 16 h in nocodazole. DMSO or Volasertib was added during the last hour of nocodazole treatment. 5 mg of nuclear extract were incubated with GFP Trap Magnetic Agarose beads (Chromotek) for 2 h at 4 °C and beads were washed once with 150 mM NaCl buffer, twice with 300 mM NaCl and twice with 500 mM NaCl buffer. Finally, beads were resuspended in 100 µl 25 mM Ammonium bicarbonate and digested by adding 0.2 μg of trypsin/LysC (Promega) for 1 h at 37 °C. Samples were then desalted and peptides were reconstituted in injection buffer before LC–MS/MS analysis as described previously in the Polθ binding partners identification. Mass spectrometry analysis was performed on five independent experiments. GFP Trap Magnetic Agarose beads incubated in HeLa native cell extracts were used as controls. […] Beads were resuspended, digested and desalted, and then peptides were reconstituted in injections buffer before LC–MS/MS analysis, as described for Polθ binding partners identification and by using an Orbitrap Eclipse mass spectrometer. Mass spectrometry analysis was performed on five independent experiments. Pull-downs of streptavidin beads incubated in nuclear extract of HeLa cells were used as control.

The subject of another data set is Polθ foci in mitosis. Description: Polθ recruitment to DSBs in mitosis under PLK1 inhibition. Format: cell-based, human. Particulars: wild-type Polθ expressing cells, PLK1i (Volasertib, 200 nM). The protocol: as §2, with “[…] Images were mounted in SoftWoRx and analysed using the Fiji software (1.53c). […]” for “All scale bars represent 5 μm unless stated otherwise.”

The next data set deals with mitotic end joining. Put plainly: Mitotic end-joining repair assay (extrachromosomal substrate, qPCR). The following applies: PLK1i (Volasertib, 200 nM), mitotic cells, substrate 150 ng, 1.5 h. It is filed as cell-based, human. The source says:
To assess mitotic end-joining repair, a DNA repair substrate was designed to mimic resected DNA ends containing four microhomologies, as previously described. The repair substrate was built by ligating a PCR product (GFP sequence) to DNA oligonucleotide duplexes on both sides. The PCR product (747 bp) was amplified from a GFP sequence (PCAG vector, Addgene) using the following oligonucleotide sequences (Fwd core GFP: […], Rev core GFP: […]), digested by the BsaI-HF v2 enzyme (NEB) to reveal 4 nucleotides (nts) complementary to the DNA oligonucleotide duplexes and finally, purified (Gel and PCR cleanup kit Macherey-Nagel). In parallel, two oligonucleotide duplexes (1 and 2) with ~70 nts overhangs were made after annealing (95 °C 10 min, 25 °C 30 min) of the following oligonucleotides. Oligonucleotides for duplex 1 (17 nt dsDNA, 69 nt ssDNA): oligo 1-A, […]; oligo 1-B, […]. Oligonucleotides for duplex 2 (15 nt dsDNA, 71 nt ssDNA): oligo 2-A, […]; oligo 2-B: […]. […]
To measure DNA repair efficiency, a qPCR was performed both on the GFP sequence (to control for the DNA repair substrate transfection) as well as on potential end-joining repair products. Mitotic end-joining repair efficiency was calculated using ΔΔCt between GFP qPCR and end-joining qPCR using SYBR Green Master Mix (ThermoFisher Scientific).

From article PMC10499603, “Polθ is phosphorylated by PLK1 to repair double-strand breaks in mitosis” (Nature, 2023) come the findings set out here.

Regarding “CAGGACAGUCUUUCCACGAdTdT (sense CAGGACAGUCUUUCCACGATT; chemistry not fully specified) [53BP1, siRNA targeting 53BP1]”, the “Polθ nuclear body formation” value in the data set on Polθ nuclear bodies is recorded as “increased Polθ nuclear body formation”.
In the case of `CNCc1ccc(-c2[nH]c3cc(F)cc4c3c2CCNC4=O)cc1` [Rucaparib], the “clonogenic survival / cell killing” value in the data set on wild-type cells is given as “sufficient to kill BRCA2^−/− but not wild-type cells”; in the data set with BRCA2^−/− cells it was “sufficient to kill BRCA2^−/−”. Also, the “DSB formation in mitosis” value in the data set with mitotic BRCA2^−/− cells [1] is listed as “induced the formation of DSBs”. The “chromosomal abnormalities (breaks and radials)” value in the data set with mitotic BRCA2^−/− cells [2] is “induced the formation of DSBs and chromosomal abnormalities”. For the same molecule, in data set [3], the “Polθ recruitment to mitotic DSBs” value was “abolished”.
On to `CC[C@@H]1C(=O)N(C)c2cnc(Nc3ccc(C(=O)N[C@H]4CC[C@H](N5CCN(CC6CC6)CC5)CC4)cc3OC)nc2N1C(C)C` [Volasertib], for which, in the data set on Polθ phosphorylation, the “Ratio Nocodazole / Volacertib, phospho-site S1628.S1639” value is reported as 5.418. The “Ratio Nocodazole / Volacertib, phospho-site S1594” value with Polθ phosphorylation (adj. p 0.00104923) was 1.901. The “Ratio Nocodazole / Volacertib, phospho-site S1094*” value with Polθ phosphorylation (adj. p 0.0536125, * only re-extracted peptides by MBR) is given as 1.958. The “Ratio Nocodazole / Volacertib, phospho-site T1755” value in the data set with Polθ phosphorylation (adj. p 0.0634598) is 3.242. In addition, in the data set with Polθ phosphorylation (adj. p 0.115005, * only re-extracted peptides by MBR), the “Ratio Nocodazole / Volacertib, phospho-site S1436*” value worked out at 1.887. Further, in the data set with Polθ phosphorylation (adj. p 0.400471), the “Ratio Nocodazole / Volacertib, phospho-site S1289” value turned out to be 3.904. In addition, the “Polθ recruitment to DSBs in mitosis” value in the data set with Polθ foci in mitosis was “neither mutant was recruited to DSBs in mitosis (Fig. 3f, Extended Data Fig. 8a and Supplementary Video 4), similar to our observations in wild-type Polθ expressing cells under PLK1 inhibition”. Also, in the data set on mitotic end joining, the “efficiency of mitotic end joining” value is on record as “greatly impaired the efficiency of mitotic end joining”.
